Measured values taken from ChEMBL document CHEMBL3217489, “Minisci reactions: Versatile CH-functionalizations for medicinal chemists” (Medchemcomm, 2011).

Columns and labels:
Adenosine deaminase = molecular target: T1, Adenosine deaminase (Bos taurus, UniProt P56658); assay: Inhibition of calf duodenum adenosine deaminase
T1 sequence (P56658 whole entry): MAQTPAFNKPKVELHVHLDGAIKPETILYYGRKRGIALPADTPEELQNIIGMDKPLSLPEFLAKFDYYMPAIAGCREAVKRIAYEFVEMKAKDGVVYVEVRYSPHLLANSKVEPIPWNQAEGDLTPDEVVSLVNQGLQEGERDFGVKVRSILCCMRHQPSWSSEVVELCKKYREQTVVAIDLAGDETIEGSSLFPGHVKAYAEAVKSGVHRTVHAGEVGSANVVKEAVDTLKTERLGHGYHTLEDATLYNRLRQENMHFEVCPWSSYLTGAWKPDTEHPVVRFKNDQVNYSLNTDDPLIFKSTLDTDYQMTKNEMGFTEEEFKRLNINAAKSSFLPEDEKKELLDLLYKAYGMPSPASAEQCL

[1] = molecular target: T2, Steroid 17-alpha-hydroxylase/17,20 lyase (Homo sapiens, UniProt P05093); assay: Reversible inhibition of human cytochrome P450 17alpha
T2 sequence (P05093 whole entry): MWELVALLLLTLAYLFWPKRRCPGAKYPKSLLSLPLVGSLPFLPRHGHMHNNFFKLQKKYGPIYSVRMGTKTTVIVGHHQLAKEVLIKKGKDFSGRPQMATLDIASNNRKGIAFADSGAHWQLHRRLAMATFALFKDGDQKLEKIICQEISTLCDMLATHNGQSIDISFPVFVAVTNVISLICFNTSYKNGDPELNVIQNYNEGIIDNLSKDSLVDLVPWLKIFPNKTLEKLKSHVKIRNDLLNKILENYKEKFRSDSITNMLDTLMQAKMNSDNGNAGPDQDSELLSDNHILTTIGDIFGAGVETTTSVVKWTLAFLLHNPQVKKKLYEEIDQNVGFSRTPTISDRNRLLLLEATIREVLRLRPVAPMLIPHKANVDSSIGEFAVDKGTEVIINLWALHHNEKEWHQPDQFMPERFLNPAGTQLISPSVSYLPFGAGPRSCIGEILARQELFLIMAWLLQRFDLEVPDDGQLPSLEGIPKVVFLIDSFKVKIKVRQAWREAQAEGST

[2] = molecular target: Neuronal acetylcholine receptor; alpha4/beta2 (Homo sapiens, UniProt P17787+P43681); assay: Inhibition of alpha4beta2 nAChR (unknown origin); assay type: protein-complex assay
Neuronal acetylcholine receptor; alpha4/beta2, sequence (P17787 whole entry): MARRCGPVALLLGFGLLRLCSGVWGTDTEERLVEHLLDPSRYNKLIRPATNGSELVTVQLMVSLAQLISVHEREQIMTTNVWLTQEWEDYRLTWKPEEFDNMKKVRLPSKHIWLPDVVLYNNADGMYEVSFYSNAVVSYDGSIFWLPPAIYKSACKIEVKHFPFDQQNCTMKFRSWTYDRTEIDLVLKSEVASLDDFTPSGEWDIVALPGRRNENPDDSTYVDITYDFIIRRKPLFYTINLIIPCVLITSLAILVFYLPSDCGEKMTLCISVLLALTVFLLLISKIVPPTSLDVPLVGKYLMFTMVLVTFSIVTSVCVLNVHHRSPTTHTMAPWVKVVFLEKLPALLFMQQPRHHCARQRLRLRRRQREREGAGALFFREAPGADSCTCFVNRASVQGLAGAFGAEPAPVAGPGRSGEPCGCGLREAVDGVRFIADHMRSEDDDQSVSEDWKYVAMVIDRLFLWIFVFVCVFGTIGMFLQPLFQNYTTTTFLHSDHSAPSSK
Neuronal acetylcholine receptor; alpha4/beta2, sequence (P43681 whole entry): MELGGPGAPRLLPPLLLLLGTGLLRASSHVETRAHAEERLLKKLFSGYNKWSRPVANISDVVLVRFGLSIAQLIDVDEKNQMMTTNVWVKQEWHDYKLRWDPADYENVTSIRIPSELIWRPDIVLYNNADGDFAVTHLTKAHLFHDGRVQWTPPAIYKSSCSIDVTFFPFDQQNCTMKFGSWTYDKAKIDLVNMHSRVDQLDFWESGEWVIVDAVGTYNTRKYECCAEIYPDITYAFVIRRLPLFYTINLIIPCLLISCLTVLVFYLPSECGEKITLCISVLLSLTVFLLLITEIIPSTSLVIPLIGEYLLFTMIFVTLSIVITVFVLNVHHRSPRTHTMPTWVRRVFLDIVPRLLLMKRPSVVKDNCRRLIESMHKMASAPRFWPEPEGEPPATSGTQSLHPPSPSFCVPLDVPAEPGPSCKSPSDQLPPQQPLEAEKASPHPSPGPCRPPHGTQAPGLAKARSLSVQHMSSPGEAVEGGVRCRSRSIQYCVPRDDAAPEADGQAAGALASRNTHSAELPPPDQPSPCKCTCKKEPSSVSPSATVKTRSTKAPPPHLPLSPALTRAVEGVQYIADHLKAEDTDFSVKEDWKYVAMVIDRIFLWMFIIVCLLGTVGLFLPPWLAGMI

[3] = molecular target: T2, Steroid 17-alpha-hydroxylase/17,20 lyase; assay: Irreversible inhibition of human cytochrome P450 17alpha

Structure (SMILES) | Ki (Adenosine deaminase) [nM] | also measured
C[C@]12CC[C@H]3[C@@H](CC=C4C[C@@H](O)CC[C@@]43C)[C@@H]1CC[C@H]2c1ccncc1 | – | IC50 [1]: 27 nM
Clc1ccc2c(n1)CC1CNCC2C1 (racemic) | – | Ki [2]: 3.5 nM
Clc1cc2c(cn1)C1CNCC(C2)C1 (racemic) | – | Ki [2]: 0.5 nM
C[C@]12CC[C@H](O)CC1=CC[C@@H]1[C@@H]2CC[C@]2(C)C(c3cccnc3)=CC[C@@H]12 [ABIRATERONE] | – | IC50 [3]: 5 nM
OC[C@H]1O[C@@H](n2cnc3cncnc32)[C@H](O)[C@@H]1O [NEBULARINE] | 9300 | –

Continued, in another order:

Ki (Adenosine deaminase) [nM] | Structure (SMILES) | also measured
9400 | OCc1ncnc2c1ncn2[C@@H]1O[C@H](CO)[C@@H](O)[C@H]1O | –
760 | OCC1NC=Nc2c1ncn2[C@@H]1O[C@H](CO)[C@@H](O)[C@H]1O (single isomer, unassigned; diastereomer 1) | –
12500 | OCC1NC=Nc2c1ncn2[C@@H]1O[C@H](CO)[C@@H](O)[C@H]1O (single isomer, unassigned; diastereomer 2) | –
